From PubChem BioAssay (NCI)
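Five compound concentrations were applied to cells in 96-well plates for 48 hours; endpoints were derived by simple linear interpolation of the resulting dose-response curve. The concentration for 50% growth inhibition is given as GI50. At the TGI there is no net growth.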

What was measured:
Experiment in all cases: NCI-60 cell line screen, 48 h
786-0 renal = tested on: 786-0 renal
A498 renal = tested on: A498 renal
A549 NSCLC = tested on: A549 NSCLC
ACHN renal = tested on: ACHN renal
BT-549 breast = tested on: BT-549 breast
CAKI-1 renal = tested on: CAKI-1 renal
CCRF-CEM leukemia = tested on: CCRF-CEM leukemia
COLO 205 colon = tested on: COLO 205 colon
DU-145 prostate = tested on: DU-145 prostate
EKVX NSCLC = tested on: EKVX NSCLC
HCC-2998 colon = tested on: HCC-2998 colon
HCT-116 colon = tested on: HCT-116 colon
HCT-15 colon = tested on: HCT-15 colon
HL-60(TB) leukemia = tested on: HL-60(TB) leukemia
HOP-62 NSCLC = tested on: HOP-62 NSCLC
HOP-92 NSCLC = tested on: HOP-92 NSCLC
HS 578T breast = tested on: HS 578T breast
HT29 colon = tested on: HT29 colon
IGROV1 ovarian = tested on: IGROV1 ovarian
K-562 leukemia = tested on: K-562 leukemia
KM12 colon = tested on: KM12 colon
LOX IMVI melanoma = tested on: LOX IMVI melanoma
M14 melanoma = tested on: M14 melanoma
MCF7 breast = tested on: MCF7 breast
MDA-MB-231 breast = tested on: MDA-MB-231 breast
MDA-MB-435 = tested on: MDA-MB-435
NCI-H226 lung = tested on: NCI-H226 lung
NCI-H23 lung = tested on: NCI-H23 lung
NCI-H460 lung = tested on: NCI-H460 lung
NCI-H522 lung = tested on: NCI-H522 lung
NCI/ADR-RES ovarian = tested on: NCI/ADR-RES ovarian
OVCAR-3 ovarian = tested on: OVCAR-3 ovarian
OVCAR-4 ovarian = tested on: OVCAR-4 ovarian
OVCAR-5 ovarian = tested on: OVCAR-5 ovarian
OVCAR-8 ovarian = tested on: OVCAR-8 ovarian
PC-3 prostate = tested on: PC-3 prostate
RPMI-8226 leukemia = tested on: RPMI-8226 leukemia
SF-268 CNS = tested on: SF-268 CNS
SF-295 CNS = tested on: SF-295 CNS
SF-539 CNS = tested on: SF-539 CNS
SK-MEL-2 melanoma = tested on: SK-MEL-2 melanoma
SK-MEL-28 melanoma = tested on: SK-MEL-28 melanoma
SK-MEL-5 melanoma = tested on: SK-MEL-5 melanoma
SK-OV-3 ovarian = tested on: SK-OV-3 ovarian
SN12C renal = tested on: SN12C renal
SNB-19 CNS = tested on: SNB-19 CNS
SNB-75 CNS = tested on: SNB-75 CNS
SR leukemia = tested on: SR leukemia
SW-620 colon = tested on: SW-620 colon
T-47D breast = tested on: T-47D breast
TK-10 renal = tested on: TK-10 renal
U251 CNS = tested on: U251 CNS
UACC-257 melanoma = tested on: UACC-257 melanoma
UACC-62 melanoma = tested on: UACC-62 melanoma
UO-31 renal = tested on: UO-31 renal
MALME-3M melanoma = tested on: MALME-3M melanoma

O=C(O)Cc1ccc(Oc2nc3ccccc3nc2C(=O)O)cc1 showed a TGI (786-0 renal) of over 100 µM, a TGI (A498 renal) of over 100 µM and a TGI (A549 NSCLC) of over 100 µM. For the same molecule, the TGI (ACHN renal) was over 100 µM, the TGI (BT-549 breast) was over 100 µM and the TGI (CAKI-1 renal) was over 100 µM. For the same molecule, the TGI (CCRF-CEM leukemia) was over 100 µM, the TGI (COLO 205 colon) was over 100 µM and the TGI (DU-145 prostate) was over 100 µM. It also gave a TGI (EKVX NSCLC) of over 100 µM, a TGI (HCC-2998 colon) of over 100 µM and a TGI (HCT-116 colon) of over 100 µM. The TGI (HCT-15 colon) was over 100 µM, the TGI (HL-60(TB) leukemia) was over 100 µM and the TGI (HOP-62 NSCLC) was over 100 µM. The TGI (HOP-92 NSCLC) was over 100 µM, the TGI (HS 578T breast) was over 100 µM and the TGI (HT29 colon) was over 100 µM. It also gave a TGI (IGROV1 ovarian) of over 100 µM, a TGI (K-562 leukemia) of over 100 µM and a TGI (KM12 colon) of over 100 µM. The TGI (LOX IMVI melanoma) was over 100 µM, the TGI (M14 melanoma) was over 100 µM and the TGI (MCF7 breast) was over 100 µM. For the same molecule, the TGI (MDA-MB-231 breast) was over 100 µM, the TGI (MDA-MB-435) was over 100 µM and the TGI (NCI-H226 lung) was over 100 µM. For the same molecule, the TGI (NCI-H23 lung) was over 100 µM, the TGI (NCI-H460 lung) was over 100 µM and the TGI (NCI-H522 lung) was over 100 µM. It also gave a TGI (NCI/ADR-RES ovarian) of over 100 µM, a TGI (OVCAR-3 ovarian) of over 100 µM and a TGI (OVCAR-4 ovarian) of over 100 µM. It also gave a TGI (OVCAR-5 ovarian) of over 100 µM, a TGI (OVCAR-8 ovarian) of over 100 µM and a TGI (PC-3 prostate) of over 100 µM. The TGI (RPMI-8226 leukemia) was over 100 µM, the TGI (SF-268 CNS) was over 100 µM and the TGI (SF-295 CNS) was over 100 µM. For the same molecule, the TGI (SF-539 CNS) was over 100 µM, the TGI (SK-MEL-2 melanoma) was over 100 µM and the TGI (SK-MEL-28 melanoma) was over 100 µM. For the same molecule, the TGI (SK-MEL-5 melanoma) was over 100 µM, the TGI (SK-OV-3 ovarian) was over 100 µM and the TGI (SN12C renal) was over 100 µM. It also gave a TGI (SNB-19 CNS) of over 100 µM, a TGI (SNB-75 CNS) of over 100 µM and a TGI (SR leukemia) of over 100 µM. The TGI (SW-620 colon) was over 100 µM, the TGI (T-47D breast) was over 100 µM and the TGI (TK-10 renal) was over 100 µM. The TGI (U251 CNS) was over 100 µM, the TGI (UACC-257 melanoma) was over 100 µM and the TGI (UACC-62 melanoma) was over 100 µM. For the same molecule, the TGI (UO-31 renal) was over 100 µM.

CCCCCCCCCCCCCCCC[N+](C)(CCO)Cc1cnc[nH]1 (stereo unspecified) was tested, and the GI50 (786-0 renal) was 0.852 µM, the TGI (786-0 renal) was 2.84 µM and the GI50 (A498 renal) was 2.93 µM. It also gave a TGI (A498 renal) of 12.2 µM, a GI50 (A549 NSCLC) of 1.49 µM and a TGI (A549 NSCLC) of 5.57 µM. It also gave a GI50 (ACHN renal) of 3.13 µM, a TGI (ACHN renal) of 19.4 µM and a GI50 (BT-549 breast) of 2.52 µM. It also gave a TGI (BT-549 breast) of 7.05 µM, a GI50 (CAKI-1 renal) of 0.622 µM and a TGI (CAKI-1 renal) of 4.47 µM. For the same molecule, the GI50 (DU-145 prostate) was 1.23 µM, the TGI (DU-145 prostate) was 4.2 µM and the GI50 (EKVX NSCLC) was 1.47 µM. For the same molecule, the TGI (EKVX NSCLC) was 6.63 µM, the GI50 (HCC-2998 colon) was 1.14 µM and the TGI (HCC-2998 colon) was 2.73 µM. The GI50 (HCT-15 colon) was 3.03 µM, the TGI (HCT-15 colon) was 26.1 µM and the GI50 (HL-60(TB) leukemia) was 0.39 µM. For the same molecule, the TGI (HL-60(TB) leukemia) was 2 µM, the GI50 (HOP-62 NSCLC) was 0.456 µM and the TGI (HOP-62 NSCLC) was 1.68 µM. It also gave a GI50 (HOP-92 NSCLC) of 0.922 µM, a TGI (HOP-92 NSCLC) of 3.82 µM and a GI50 (HS 578T breast) of 2.85 µM. The TGI (HS 578T breast) was 35.9 µM, the GI50 (HT29 colon) was 0.382 µM and the TGI (HT29 colon) was 12.3 µM. The GI50 (K-562 leukemia) was 1.57 µM, the TGI (K-562 leukemia) was over 100 µM and the GI50 (M14 melanoma) was 0.598 µM. For the same molecule, the TGI (M14 melanoma) was 2.22 µM, the GI50 (MALME-3M melanoma) was 2.01 µM and the TGI (MALME-3M melanoma) was 6.54 µM. The GI50 (MCF7 breast) was 1.87 µM, the TGI (MCF7 breast) was 13.9 µM and the GI50 (MDA-MB-231 breast) was 1.48 µM. For the same molecule, the TGI (MDA-MB-231 breast) was 5.5 µM, the GI50 (MDA-MB-435) was 1.44 µM and the TGI (MDA-MB-435) was 3.81 µM. It also gave a GI50 (NCI-H226 lung) of 1.51 µM, a TGI (NCI-H226 lung) of 7.72 µM and a GI50 (NCI-H23 lung) of 0.858 µM. It also gave a TGI (NCI-H23 lung) of 5.3 µM, a GI50 (NCI/ADR-RES ovarian) of 14.7 µM and a TGI (NCI/ADR-RES ovarian) of 42.4 µM. It also gave a GI50 (OVCAR-3 ovarian) of 0.995 µM, a TGI (OVCAR-3 ovarian) of 3.31 µM and a GI50 (OVCAR-4 ovarian) of 0.978 µM. It also gave a TGI (OVCAR-4 ovarian) of 56.4 µM, a GI50 (PC-3 prostate) of 0.441 µM and a TGI (PC-3 prostate) of 2.37 µM. It also gave a GI50 (SF-295 CNS) of 1.18 µM, a TGI (SF-295 CNS) of 4.01 µM and a GI50 (SF-539 CNS) of 1.78 µM. For the same molecule, the TGI (SF-539 CNS) was 4.75 µM, the GI50 (SK-MEL-28 melanoma) was 2.7 µM and the TGI (SK-MEL-28 melanoma) was 9.78 µM. For the same molecule, the GI50 (SK-OV-3 ovarian) was 1.5 µM, the TGI (SK-OV-3 ovarian) was 5.22 µM and the GI50 (SN12C renal) was 1.45 µM. It also gave a TGI (SN12C renal) of 6.31 µM, a GI50 (SNB-75 CNS) of 1.11 µM and a TGI (SNB-75 CNS) of 5.86 µM. The GI50 (SR leukemia) was 1.97 µM, the TGI (SR leukemia) was over 100 µM and the GI50 (SW-620 colon) was 0.978 µM. The TGI (SW-620 colon) was 13.7 µM, the GI50 (T-47D breast) was 2.8 µM and the TGI (T-47D breast) was 28.1 µM. It also gave a GI50 (UACC-257 melanoma) of 4.08 µM, a TGI (UACC-257 melanoma) of 72.7 µM and a GI50 (UO-31 renal) of 23 µM. For the same molecule, the TGI (UO-31 renal) was over 100 µM.
